Assay results: publication PMC10875103, “Selective synthesis of rebaudioside M2 through structure-guided engineering of glycosyltransferase UGT94D1” (Frontiers in Bioengineering and Biotechnology, 2024)

Biological target: T1, UGT94D1 (Sesamum indicum, UniProt A0A6I9T8N3, F119I/D188P)
T1 construct: gene LOC105161042; full ORF, synthetic codon-optimised gene; Ni-NTA purified and desalted
Assay: UPLC glucosylation assay, […] h turnover
Type: biochemical
Details: 0.5 mM Reb D, 5 mM UDPG, 10 mM MnCl2, 50 mM Tris-HCl pH 8.0, 35 °C

T1 sequence (A0A6I9T8N3 entry or part of it F119I/D188P): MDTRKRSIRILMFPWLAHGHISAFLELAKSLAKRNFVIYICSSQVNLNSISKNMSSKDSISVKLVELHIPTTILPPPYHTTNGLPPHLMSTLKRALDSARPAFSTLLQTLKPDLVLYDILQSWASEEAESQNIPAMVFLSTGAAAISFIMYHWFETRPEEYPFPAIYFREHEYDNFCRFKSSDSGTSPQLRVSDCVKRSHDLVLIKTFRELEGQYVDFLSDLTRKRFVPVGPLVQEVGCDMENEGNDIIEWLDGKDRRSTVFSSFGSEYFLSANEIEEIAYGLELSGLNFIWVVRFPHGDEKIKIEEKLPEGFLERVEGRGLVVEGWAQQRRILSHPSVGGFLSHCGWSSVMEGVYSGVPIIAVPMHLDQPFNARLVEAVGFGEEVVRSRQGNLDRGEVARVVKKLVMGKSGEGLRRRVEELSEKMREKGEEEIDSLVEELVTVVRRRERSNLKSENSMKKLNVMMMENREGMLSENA

Compound: C=C1C[C@@]23CC[C@H]4[C@@](C)(CCC[C@@]4(C)C(=O)O[C@@H]4O[C@H](CO)[C@@H](O)[C@H](O)[C@H]4O[C@@H]4O[C@H](CO)[C@@H](O)[C@H](O)[C@H]4O)[C@@H]2CC[C@]1(O[C@@H]1O[C@H](CO)[C@@H](O)[C@H](O[C@@H]2O[C@H](CO)[C@@H](O)[C@H](O)[C@H]2O)[C@H]1O[C@@H]1O[C@H](CO)[C@@H](O)[C@H](O)[C@H]1O)C3 [rebaudioside D]
- relative activity: catalytic activities of mutants F119I/D188P and F119P/D188P were further improved
